According to patent US20050112128A1, “Inhibition of protein kinase c-mu (PKD) as a treatment for cardiac hypertrophy and heart failure” (Myogen, Inc. and Board of Regents, The University of Texas …, priority 2003, published 2005):
“Also recorded” adds a separate entry of the source.

Tests used:
[1] = test system: endogenous PKD; test: Co-immunoprecipitation of endogenous PKD with HDAC5 in NRVMs (total PKD and p-916 immunoblot); assay type: cell-based, rat; details: PE 20 μM 1 hr, absence or presence of Bis I 10 μM
[2] = test system: nuclear export of GFP-HDAC5 in NRVMs; test: Quantitative HDAC5 nuclear export assay in NRVMs (Cellomics High Content Imaging System); assay type: cell-based, rat; details: 2 hrs
[3] = test system: NRVMs; test: ANF immunostaining of cardiomyocytes (hypertrophy marker); assay type: cell-based, rat; details: PE 20 μM or PMA 100 nM, 24 hrs
Experimental: FIGS. 3A-C—Inhibition of PKC-mediated cardiac hypertrophy by signalresistant HDAC5. NRVMs were cultured on 6-well dishes and infected with adenoviruses (MOI=10) encoding a LacZ control (Ad-LacZ) or FLAG-tagged HDAC5 harboring alanines in place of serines 259 and 498 (Ad-HDAC5 S/A), which are required for 14-3-3-mediated nuclear export. Cells were treated with PE (20 μM) or PMA (100 nM) for 24 hrs prior to analysis. FIG. 3A. Cells were fixed and sarcomeres visualized by indirect immunofluorescence with primary antibody specific for α-actinin and fluorescein-conjugated secondary antibody. FIG. 3B. ANF protein was detected by indirect immunofluorescence with anti-ANF primary antibody. FIG. 3C. Total RNA was harvested from cells and subjected to dot blot analysis with radiolabeled oligonucleotides specific for the indicated transcripts. RNA levels were quantified using a phosphorimager and are depicted as -fold change relative to amounts in unstimulated cells infected with Ad-LacZ. Values were normalized to GAPDH controls.
Cell culture and transfection assays. COS cells were maintained in DMEM with FBS (10%), L-glutamine (2 mM), and penicillin-streptomycin. Transfection of COS cells was performed with Fugene 6 (Roche Molecular Biochemicals) according to manufacturer's instructions. […]

[4] = Takahashi et al., 1996; cited from earlier work
[5] = test system: ras transformed cells; details: Taunton et al., 1996; cited from earlier work
[6] = target: T1, PKD (Homo sapiens, UniProt Q15139); details: literature (Van Lint 2002; Gschwendt 1996; Haworth); cited from earlier work
T1 sequence (Q15139 1-912): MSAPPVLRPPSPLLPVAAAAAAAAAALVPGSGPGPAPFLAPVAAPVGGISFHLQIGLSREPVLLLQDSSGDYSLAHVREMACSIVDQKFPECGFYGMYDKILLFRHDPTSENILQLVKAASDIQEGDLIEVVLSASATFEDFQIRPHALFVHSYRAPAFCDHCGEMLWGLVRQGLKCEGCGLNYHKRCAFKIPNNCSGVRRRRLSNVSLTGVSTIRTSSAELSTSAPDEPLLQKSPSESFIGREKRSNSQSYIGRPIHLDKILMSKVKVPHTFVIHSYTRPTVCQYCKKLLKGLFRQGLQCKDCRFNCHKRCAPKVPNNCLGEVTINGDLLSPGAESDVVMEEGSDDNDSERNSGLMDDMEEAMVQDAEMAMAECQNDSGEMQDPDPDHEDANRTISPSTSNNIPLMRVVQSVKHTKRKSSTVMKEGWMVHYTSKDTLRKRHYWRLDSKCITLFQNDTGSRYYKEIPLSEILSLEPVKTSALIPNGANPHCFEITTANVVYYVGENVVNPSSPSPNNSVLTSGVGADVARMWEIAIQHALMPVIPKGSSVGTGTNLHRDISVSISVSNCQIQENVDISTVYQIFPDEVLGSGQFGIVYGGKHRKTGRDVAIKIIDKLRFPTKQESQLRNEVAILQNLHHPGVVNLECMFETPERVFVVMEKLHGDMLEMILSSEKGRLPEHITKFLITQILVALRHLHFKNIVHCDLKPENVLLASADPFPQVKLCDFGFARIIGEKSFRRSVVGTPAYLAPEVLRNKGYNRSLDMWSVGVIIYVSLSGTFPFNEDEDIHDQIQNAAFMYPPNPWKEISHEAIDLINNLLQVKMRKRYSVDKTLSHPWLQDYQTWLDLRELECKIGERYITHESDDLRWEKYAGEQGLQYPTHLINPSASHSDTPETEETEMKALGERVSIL

[7] = test system: association of HDAC5 and 14-3-3; test: Immunoprecipitation/immunoblotting of HDAC5 and 14-3-3 in NRVMs; assay type: cell-based, rat; details: inhibitor 10 μM, 1 hr before PE (20 μM) or ET-1 (50 nM) for 1 hr
[8] = target: T2, HDAC5-bound PKD (Rattus norvegicus, UniProt Q9WTQ1); assay type: biochemical; details: 10 μM inhibitor in kinase reaction mixture (post)
T2 construct: Association of endogenous PKD with HDAC5 in cardiomyocytes; endogenous in cells; host or cells: neonatal rat ventricular myocytes; the kinase co-precipitated with adenoviral FLAG-HDAC5
T2 sequence (Q9WTQ1 1-918): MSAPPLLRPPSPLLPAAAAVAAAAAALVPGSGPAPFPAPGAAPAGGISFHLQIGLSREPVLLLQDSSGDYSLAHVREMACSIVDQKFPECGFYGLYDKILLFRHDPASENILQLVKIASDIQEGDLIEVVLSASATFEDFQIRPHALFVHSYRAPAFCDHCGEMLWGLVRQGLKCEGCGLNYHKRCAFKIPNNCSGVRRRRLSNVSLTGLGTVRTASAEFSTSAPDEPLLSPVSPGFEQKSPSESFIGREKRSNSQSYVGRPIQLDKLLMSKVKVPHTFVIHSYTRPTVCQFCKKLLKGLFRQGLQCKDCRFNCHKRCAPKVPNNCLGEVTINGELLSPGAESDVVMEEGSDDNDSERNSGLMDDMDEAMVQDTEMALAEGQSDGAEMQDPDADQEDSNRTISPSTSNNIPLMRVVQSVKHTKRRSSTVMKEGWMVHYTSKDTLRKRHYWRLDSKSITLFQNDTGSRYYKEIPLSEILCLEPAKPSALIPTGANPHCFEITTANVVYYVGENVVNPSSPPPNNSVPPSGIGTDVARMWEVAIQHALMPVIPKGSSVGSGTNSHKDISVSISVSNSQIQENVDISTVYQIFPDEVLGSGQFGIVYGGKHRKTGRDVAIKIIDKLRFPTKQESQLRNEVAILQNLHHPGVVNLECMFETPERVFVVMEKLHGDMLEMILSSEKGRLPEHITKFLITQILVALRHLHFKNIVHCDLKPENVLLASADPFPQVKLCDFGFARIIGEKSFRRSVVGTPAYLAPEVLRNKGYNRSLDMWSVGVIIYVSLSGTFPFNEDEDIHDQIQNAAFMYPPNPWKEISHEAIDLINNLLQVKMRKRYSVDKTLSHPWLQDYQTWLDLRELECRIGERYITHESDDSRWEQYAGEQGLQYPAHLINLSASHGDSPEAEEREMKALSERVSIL

In the case of `CNC[C@H](O)c1cccc(O)c1` [PE, phenylephrine], the “activation of HDAC5-associated PKD” value [1] is reported as “became activated in a PKC-dependent manner”, the “agonist-triggered nuclear export of HDAC5 in cardiomyocytes” value ([2]; NRVMs infected with Ad-GFP-HDAC5, PE 0.1 to 20 μM, ET-1 50 nM, FBS 10%) is reported as “triggered nuclear export of HDAC5 in a concentration-dependent manner; also recorded: triggered dose-dependent nuclear export of HDAC5” and the ANF protein expression [3] is reported as “prominent perinuclear ANF protein expression”.
For `CC(/C=C/C(=O)NO)=C\[C@@H](C)C(=O)c1ccc(N(C)C)cc1` [Trichostatin A], the “immunosuppression in a mouse model” value [4] is given as “induces immunsuppression in a mouse model” and the “effect on acetylation and morphology of ras transformed cells” value [5] is given as “induce hyperacetylation and cause reversion of ras transformed cells to normal morphology”.
In the case of `Cn1c2ccccc2c2c3c(c4c5ccccc5n(CCC#N)c4c21)CNC3=O` [Gö6976], the “sensitivity of PKD to the inhibitor” value [6] is given as “sensitive to Gö6976”, the “block of ET-1-induced nuclear export of HDAC5” value ([2]; NRVMs, ET-1 50 nM, inhibitor pre-treatment 30 min) is given as “efficiently blocked nuclear export of HDAC5” and the “block of FBS-induced nuclear export of HDAC5” value ([2]; NRVMs, FBS 10%, inhibitor pre-treatment 30 min) is given as “efficiently blocked nuclear export of HDAC5”. For the same compound, the “block of PE-induced nuclear export of HDAC5” value ([2]; NRVMs, PE 20 μM, inhibitor pre-treatment 30 min, KN93, wortmannin, staurosporine 1 mM, U1026, HA1077, Y-27632, DAG Kinase inhibitor II, SB216763, Bis I 10 mM, rapamycin 30 ng/ml, Gö6983 10 μM) was “efficiently blocked nuclear export of HDAC5”, the “block of association of HDAC5 and 14-3-3” value [7] was “blocked association of HDAC5 and 14-3-3 in response to both PE and ET-1” and the “block of HDAC5 phosphorylation, inhibitor added directly to kinase reaction” value [8] was “blocked phosphorylation of HDAC5; also recorded: blocked phosphoryl transfer to HDAC5”.
